Laboratory results from US12507703B2, “Methods, devices and compositions for preserving human milk” (The Trustees of Princeton University, priority 2023, dated 2025).
“And” between values parts separate entries of the source, which are not always exact repeats. Equal values may be shown once.

System: lipase
Experiment: Lipase/lipolysis assay (EnzChek Lipase Substrate, quenched BODIPY-fatty acid conjugate) on stored human milk; also: test concentration or dose not given here

SMILES | Lipase (RFU)
C[C@@]12CCc3occc3[C@H]1CC[C@@]13C[C@@H](CC[C@H]12)[C@@](O)(CO)C3 [Cafestol] | 1003.112 RFU
O=C([O-])[O-].[Ca+2] [Calcium carbonate] | 646.797 RFU
CC1(C)CC[C@]2(C(=O)O)CC[C@]3(C)C(=CC[C@@H]4[C@@]5(C)CC[C@H](O[C@@H]6O[C@H](C(=O)O)[C@@H](O)[C@H](O)[C@H]6O)C(C)(C)[C@@H]5CC[C@]43C)[C@@H]2C1 [Calenduloside E] | 1034.138 RFU
c1ccc2c(-c3nccs3)c[nH]c2c1 [Camalexin] | 1018.047 RFU
C[C@@H]1O[C@@H](OC[C@H]2O[C@@H](Oc3c(-c4ccc(O)cc4)oc4cc(O)cc(O)c4c3=O)[C@H](O[C@@H]3OC[C@@H](O)[C@H](O)[C@H]3O)[C@@H](O)[C@@H]2O)[C@H](O)[C@H](O)[C@H]1O [Camelliaside B] | 927.4235 RFU
CC(C)[C@H](C)CC[C@@H](C)[C@H]1CC[C@H]2[C@@H]3CC=C4C[C@@H](O)CC[C@]4(C)[C@H]3CC[C@]12C [Campesterol] | 912.1206 RFU
CCCCCC(=O)O [Caproic Acid] | 905.3416 RFU
COc1cc(COC(=O)CCCC/C=C/C(C)C)ccc1O [Capsiate] | 1078.823 RFU
NC(=O)OP(=O)(O)O [Carbamyl Phosphate] | 699.376 RFU
Cc1ccc(C(C)C)cc1O [Carvacrol] | 695.2525 RFU and 1199.593 RFU
C=C1CC[C@H]2O[C@]2(C)CC[C@@H]2[C@@H]1CC2(C)C [Caryophyllene oxide] | 891.7497 RFU and 923.1149 RFU
COc1cc(O[C@@H]2O[C@H](CO[C@@H]3O[C@H](CO)[C@@H](O)[C@H](O)[C@H]3O)[C@@H](O)[C@H](O)[C@H]2O)c2c(O)c3c(=O)oc(C)cc3cc2c1 [Cassiaside C] | 979.0974 RFU
COn1cc(CC#N)c2ccccc21 [Caulilexin C] | 998.4752 RFU
CC(=O)O[C@]1(C)CC[C@@]23C[C@@H]1C(C)(C)[C@@H]2CC[C@H]3C [Cedryl acetate] | 1088.309 RFU
O=C1C[C@@H](c2ccc(O[C@@H]3O[C@H](CO)[C@@H](O)[C@H](O)[C@H]3O)cc2)Oc2cc(O)cc(O)c21 [Choerospondin] | 1121.626 RFU
CC(C)CCC[C@@H](C)[C@H]1CC[C@H]2[C@@H]3CCC4=CC(=O)CC[C@]4(C)[C@H]3CC[C@]12C [Cholestenone] | 787.5717 RFU
CCCCCCCCCCCCCCCCCCCCCC(=O)O[C@H]1CC[C@@]2(C)C(=CC[C@H]3[C@@H]4CC[C@H]([C@H](C)CCCC(C)C)[C@@]4(C)CC[C@@H]32)C1 [Cholesteryl behenate] | 935.1979 RFU
CCCCC/C=C\C/C=C\CCCCCCCC(=O)O[C@H]1CC[C@@]2(C)C(=CC[C@H]3[C@@H]4CC[C@H]([C@H](C)CCCC(C)C)[C@@]4(C)CC[C@@H]32)C1 [Cholesteryl linoleate] | 922.3562 RFU
CCCCCCCC/C=C\CCCCCCCC(=O)O[C@H]1CC[C@@]2(C)C(=CC[C@H]3[C@@H]4CC[C@H]([C@H](C)CCCC(C)C)[C@@]4(C)CC[C@@H]32)C1 [Cholesteryl oleate] | 988.5488 RFU
C[C@H](CCC(=O)O)[C@H]1CC[C@H]2[C@@H]3[C@H](O)C[C@@H]4C[C@H](O)CC[C@]4(C)[C@H]3C[C@H](O)[C@]12C [Cholic acid (sodium)] | 828.0633 RFU and 816.2579 RFU
C[C@H](CCC(=O)O)[C@H]1CC[C@H]2[C@@H]3[C@H](O)C[C@@H]4C[C@H](O)CC[C@]4(C)[C@H]3C[C@H](O)[C@]12C [Cholic acid] | 761.6522 RFU and 886.7213 RFU
C[N+](C)(C)CCO.O=C([O-])C(O)C(O)C(=O)O (centres unmarked) [Choline (bitartrate)] | 1263.191 RFU and 1046.984 RFU

SMILES | Lipase (RFU)
C=C(O[C@@H]1C=C(C(=O)O)C=C[C@H]1O)C(=O)O [Chorismic Acid] | 935.6375 RFU
Cc1cc(O)c2c(c1)C(=O)c1cccc(O[C@@H]3O[C@H](CO)[C@@H](O)[C@H](O)[C@H]3O)c1C2=O [Chrysophanol 8-O-glucoside] | 988.4419 RFU
COc1cc(-c2oc3cc(OC)c(OC)c(O)c3c(=O)c2OC)ccc1O [Chrysosplenetin] | 1129.025 RFU
O=c1ccc2cc(O)c(O[C@@H]3O[C@H](CO)[C@@H](O)[C@H](O)[C@H]3O)cc2o1 [Cichoriin] | 714.076 RFU
Oc1cc(O)c2c(c1)O[C@@]1(c3ccc(O)c(O)c3)Oc3cc(O)c4c(c3[C@@H]2[C@H]1O)O[C@H](c1ccc(O)c(O)c1)[C@H](O)[C@H]4c1c(O)cc(O)c2c1O[C@H](c1ccc(O)c(O)c1)[C@H](O)C2 [Cinnamtannin B-1] | 1061.374 RFU
C[N+](C)(C)CCOP(=O)([O-])OP(=O)([O-])OC[C@H]1O[C@@H](n2ccc(N)nc2=O)[C@H](O)[C@@H]1O.[Na+] [Citicoline (sodium)] | 965.9573 RFU
Nc1ncnc(N[C@@H]2O[C@H](CO)[C@@H](O)[C@H]2O)c1[N+](=O)[O-] [Clitocine] | 1144.133 RFU
COC1=C(OC)C(=O)C(C/C=C(\C)CC/C=C(\C)CC/C=C(\C)CC/C=C(\C)CC/C=C(\C)CC/C=C(\C)CC/C=C(\C)CC/C=C(\C)CCC=C(C)C)=C(C)C1=O [Coenzyme Q9] | 1106.833 RFU
CC(O)CN (centres unmarked) [Compound 1-Aminopropan-2-ol, 1-Aminopropan-2-ol] | 1021.874 RFU and 806.2549 RFU
OC[C@H]1NC[C@H](O)[C@@H](O)[C@@H]1O [Compound 1-Deoxynojirimycin] | 1029.468 RFU
CCCCCCCCCCCCCCCCCO [Compound 1-Heptadecanol, 1-Heptadecanol] | 803.2986 RFU
CCCCCCO [Compound 1-Hexanol] | 1054.453 RFU and 1051.532 RFU
OC[C@H]1O[C@@](CO)(OC[C@@]2(O[C@H]3O[C@H](CO)[C@@H](O)[C@H](O)[C@H]3O)O[C@H](CO)[C@@H](O)[C@@H]2O)[C@@H](O)[C@@H]1O [Compound 1-Kestose] | 1115.168 RFU
CCCCCCCCO [Compound 1-Octanol] | 882.5398 RFU
O=c1[nH]c2ccccc2o1 [Compound 2-Benzoxazolinone, 2-Benzoxazolinone] | 985.9488 RFU
C[C@]12CC[C@@H]3c4cc(O)c(O)cc4CC[C@H]3[C@@H]1CC[C@@H]2O [Compound 2-Hydroxyestradiol] | 1214.209 RFU
COc1cc2c(cc1O)CC[C@@H]1[C@@H]2CC[C@]2(C)[C@@H](O)CC[C@@H]12 [Compound 2-Methoxyestradiol] | 884.0231 RFU
COc1cc2c(cc1O)CC[C@@H]1[C@@H]2CC[C@]2(C)C(=O)CC[C@@H]12 [Compound 2-Methoxyestrone] | 970.0321 RFU
Cc1nc2ccccc2o1 [Compound 2-Methylbenzoxazole, 2-Methylbenzoxazole] | 887.776 RFU
COc1nccc(N)n1 [Compound 2-O-Methylcytosine] | 1109.623 RFU
NC(=O)Cc1ccccc1 [Compound 2-Phenylacetamide, 2-Phenylacetamide] | 955.8815 RFU
CCCCCCCCCC(C)=O [Compound 2-Undecanone, 2-Undecanone] | 1119.854 RFU

SMILES | Lipase (RFU)
N[C@@H](Cc1ccc(O)c(Cl)c1)C(=O)O [Compound 3-Chloro-L-tyrosine, 3-Chloro-L-tyrosine] | 1117.619 RFU
Nc1c(O)cccc1C(=O)CC(N)C(=O)O (centres unmarked) [Compound 3-Hydroxykynurenine] | 1303.264 RFU
COc1c(O)cc2oc3cc4c(c(O)c3c(=O)c2c1CC=C(C)C)CCC(C)(C)O4 [Compound 3-Isomangostin] | 1135.455 RFU
COc1cc(CCN)ccc1O [Compound 3-Methoxytyramine, 3-Methoxytyramine] | 821.2607 RFU
COc1c(-c2ccccc2)oc2cc(O)cc(O)c2c1=O [Compound 3-O-Methylgalangin] | 819.4334 RFU
O=c1cc(O)c2ccccc2o1 [Compound 4-Hydroxycoumarin, 4-Hydroxycoumarin] | 929.4704 RFU
COc1ccc(C(=O)/C=C/c2ccc(O)cc2)c(O)c1CC=C(C)C [Compound 4-Hydroxyderricin] | 842.4877 RFU
C[C@]12CC[C@@H]3c4ccc(O)c(O)c4CC[C@H]3[C@@H]1CCC2=O [Compound 4-Hydroxyestrone] | 1068.255 RFU
CCCCCC(O)/C=C/C=O (centres unmarked) [Compound 4-Hydroxynonenal, 4-Hydroxynonenal] | 827.4103 RFU
COc1ccc(C)cc1 [Compound 4-Methylanisole, 4-Methylanisole] | 864.3612 RFU and 916.5396 RFU
CC(C)(C)CC(C)(C)c1ccc(O)cc1 [Compound 4-tert-Octylphenol, 4-tert-Octylphenol] | 868.4892 RFU
COc1ccc(-c2cc(=O)c3c(O)c(OC)c(OC)c(OC)c3o2)cc1OC [Compound 5-O-Demethylnobiletin] | 860.071 RFU
C[C@H](O)[C@H](O)c1cnc2nc(N)[nH]c(=O)c2n1 [Compound 6-Biopterin] | 1286.983 RFU
COc1cc2c(CCNC(C)=O)c[nH]c2cc1O [Compound 6-Hydroxymelatonin] | 976.0382 RFU
CC(C)CCC[C@@H](C)[C@H]1CC[C@H]2C3=CC=C4C[C@@H](O)CC[C@]4(C)[C@H]3CC[C@]12C [Compound 7-Dehydrocholesterol] | 820.8412 RFU
C[n+]1cn([C@@H]2O[C@H](CO)[C@@H](O)[C@H]2O)c2nc(N)[nH]c(=O)c21 [Compound 7-Methylguanosine, 7-Methylguanosine] | 974.6149 RFU
CC(C)=CCc1c(O)c(CC=C(C)C)c2oc3c(O)cccc3c(=O)c2c1O [Compound 8-Deoxygartanin] | 1168.142 RFU
CCCCCCC[C@H](O)CC(=O)CCc1ccc(O)c(OC)c1 [Compound 8-Gingerol] | 724.4815 RFU
COc1c2ccoc2c(O)c2oc(=O)ccc12 [Compound 8-Hydroxybergapten] | 800.3718 RFU
CCCCCCCCC[C@H](O)CC(=O)CCc1ccc(O)c(OC)c1 [Compound 10-Gingerol] | 817.7781 RFU
CC(=O)C1=CC[C@H]2[C@@H]3CCC4=CC(=O)CC[C@]4(C)[C@H]3CC[C@]12C [Compound 16-Dehydroprogesterone] | 1000.658 RFU
